Measurements from patent US4513001A, “β-Adrenergic 1-[1-benzimidazolyl]-N-[2-(4-hydroxy-3-methoxy-phenyl)-2-hydroxy-ethyl]- 3-amino butane and salts and hydrates thereof” (priority 1982, dated 1985).
Where two headings read alike, the source gives them in different places.

Tests used:
heart rate [1] = assay: β-stimulant specificity: heart rate of the anesthetised dog, antagonism of compound A tachycardia by acebutolol; type: in vivo
From the text: The results below are the averages of the values obtained in 3 dogs.

[2] = Acute toxicity in the mouse, intravenous; conditions: in vivo
From the text: These two compounds were the subject of an acute toxicity study in the mouse.
The two compounds had similar toxicity and the pharmacological study was able, indifferently, to be carried out with one or the other, the results being, in the two cases, expressed by weight of base per kg of body weight for the in vivo tests and in molar concentration for the in vitro tests.

heart rate [3] = assay: Heart rate of the un-anesthetised dog, oral; type: in vivo, Beagle dog
[4] = T1 + 1 min after acebutolol 0.5 mg/kg i.v., following compound A perfusion
[5] = T1 + 5 min after acebutolol 0.5 mg/kg i.v.
[6] = T1 + 15 min after acebutolol 0.5 mg/kg i.v.
[7] = T1 + 30 min (printed T i) after acebutolol 0.5 mg/kg i.v.
[8] = T1 + 1 h after acebutolol 0.5 mg/kg i.v.
[9] = T1 + 4 h after acebutolol 0.5 mg/kg i.v.

CCCC(=O)Nc1ccc(OCC(O)CNC(C)C)c(C(C)=O)c1 (centres unmarked) [Acebutolol, reference compound]
Heart rate (heart rate [1]; [4]): 162 beats/min
Heart rate variation (heart rate [1]; [4]): +5
Heart rate (heart rate [1]; [5]): 156 beats/min
Heart rate variation (heart rate [1]; [5]): -1
Heart rate (heart rate [1]; [6]): 149 beats/min
Heart rate variation (heart rate [1]; [6]): -8
Heart rate (heart rate [1]; [7]): 147 beats/min
Heart rate variation (heart rate [1]; [7]): -10
Heart rate (heart rate [1]; [8]): 154 beats/min
Heart rate variation (heart rate [1]; [8]): -3
Heart rate (heart rate [1]; [9]): 143 beats/min
Heart rate variation (heart rate [1]; [9]): -14
Antagonism of the tachycardia caused by compound A (heart rate [1]; acebutolol 0.5 mg/kg i.v., compound A perfused 6 min at 4.2 μg/kg/min): completely antagonises the tachycardia caused by compound A

COc1cc(C(O)CNC(C)CCn2cnc3ccccc32)ccc1O.Cl.Cl.O.O (centres unmarked) [Compound B, 1-[1-benzimidazolyl]-N-[2-(4-hydroxy-3-methoxy-phenyl)-2-hydroxy-ethyl]-3-amino-butane dihydrochloride, dihydrate]
LD50 ([2]; as base, confidence limits printed, read-out: LD50 expressed as base): 106 mg/kg
LD50 ([2]; by weight of product, confidence limits p=0.05 printed, read-out: LD50): 148 mg/kg
Heart rate, average (heart rate [3]; 22 μg base/kg, 15 min, time 0: 94, 12 dogs): 130
Heart rate, average (heart rate [3]; 22 μg base/kg, 30 min, time 0: 94): 129
Heart rate, average (heart rate [3]; 22 μg base/kg, 1 h, time 0: 94): 129
Heart rate, average (heart rate [3]; 22 μg base/kg, 2 h, time 0: 94): 119
Heart rate, average (heart rate [3]; 22 μg base/kg, 3 h, time 0: 94): 109
Heart rate, average (heart rate [3]; 22 μg base/kg, 4 h, time 0: 94): 104
Heart rate, average (heart rate [3]; 22 μg base/kg, 5 h, time 0: 94): 102
Heart rate, average (heart rate [3]; 72 μg base/kg, 15 min, time 0: 90, 12 dogs): 147
Heart rate, average (heart rate [3]; 72 μg base/kg, 30 min, time 0: 90): 162
Heart rate, average (heart rate [3]; 72 μg base/kg, 1 h, time 0: 90): 162
Heart rate, average (heart rate [3]; 72 μg base/kg, 2 h, time 0: 90): 160
Heart rate, average (heart rate [3]; 72 μg base/kg, 3 h, time 0: 90): 146
Heart rate, average (heart rate [3]; 72 μg base/kg, 4 h, time 0: 90): 132
Heart rate, average (heart rate [3]; 72 μg base/kg, 5 h, time 0: 90): 125
Heart rate, average (heart rate [3]; 72 μg base/kg, 6 h, time 0: 90): 115
Heart rate, average (heart rate [3]; 72 μg base/kg, 7 h, time 0: 90): 112
Tachycardiac activity (comparison with Salbutamol) (heart rate [3]; un-anesthetised dog, in words): distinctly less tachycardiac than Salbutamol
